Key:
[1] = target: Matrix metalloproteinase-14 (Homo sapiens, UniProt P50281); assay: Inhibition of human recombinant MT1-MMP expressed in Escherichia coli by fluorogenic peptide cleavage assay
[2] = target: T1, Matrilysin (Homo sapiens, UniProt P09237); assay: Inhibition of human recombinant MMP7 expressed in Escherichia coli by fluorogenic peptide cleavage assay
T1 sequence (P09237 whole entry): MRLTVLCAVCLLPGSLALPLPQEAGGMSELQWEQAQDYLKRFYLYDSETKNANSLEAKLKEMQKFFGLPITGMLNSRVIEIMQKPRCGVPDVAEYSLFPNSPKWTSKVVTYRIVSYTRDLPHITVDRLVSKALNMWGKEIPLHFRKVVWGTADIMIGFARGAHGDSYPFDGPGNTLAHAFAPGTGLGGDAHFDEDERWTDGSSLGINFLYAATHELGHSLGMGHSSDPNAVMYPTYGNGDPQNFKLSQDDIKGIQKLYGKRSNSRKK

[3] = target: 72 kDa type IV collagenase (Homo sapiens, UniProt P08253); assay: Inhibition of human recombinant MMP2 expressed in Escherichia coli by fluorogenic peptide cleavage assay
Sequence of 72 kDa type IV collagenase (P08253 whole entry): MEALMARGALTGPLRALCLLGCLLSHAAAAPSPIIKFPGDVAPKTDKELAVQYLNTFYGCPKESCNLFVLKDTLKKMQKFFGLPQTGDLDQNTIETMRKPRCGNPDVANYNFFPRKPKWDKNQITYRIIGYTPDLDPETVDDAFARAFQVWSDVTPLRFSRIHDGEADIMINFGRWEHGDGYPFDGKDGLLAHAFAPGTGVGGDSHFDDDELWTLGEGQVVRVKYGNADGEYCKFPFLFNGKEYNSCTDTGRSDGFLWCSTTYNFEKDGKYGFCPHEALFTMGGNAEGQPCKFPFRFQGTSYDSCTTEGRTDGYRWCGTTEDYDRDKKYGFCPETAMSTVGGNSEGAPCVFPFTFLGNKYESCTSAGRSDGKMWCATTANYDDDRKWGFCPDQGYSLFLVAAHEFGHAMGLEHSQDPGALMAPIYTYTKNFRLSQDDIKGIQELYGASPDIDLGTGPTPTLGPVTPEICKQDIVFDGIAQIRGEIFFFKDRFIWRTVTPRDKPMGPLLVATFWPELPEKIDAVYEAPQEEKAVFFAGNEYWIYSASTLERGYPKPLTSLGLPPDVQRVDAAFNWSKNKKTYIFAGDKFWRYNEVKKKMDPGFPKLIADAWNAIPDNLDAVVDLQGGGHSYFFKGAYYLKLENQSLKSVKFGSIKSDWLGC

SMILES | IC50 [1] [µM] | IC50 [2] [µM] | IC50 [3] [µM]
O=C(O[C@@H]1Cc2c(O)cc(O)cc2O[C@@H]1c1cc(O)c(O)c(O)c1)c1cc(O)c(O)c(O)c1 [EPIGALOCATECHIN GALLATE] | 6.8 | 21.5 | 9.6
COc1cc(C(=O)O[C@H]2Cc3c(O)cc(O)cc3O[C@@H]2c2ccc(O)c(O)c2)cc(O)c1O | 52 | > 100 | 28
COc1c(O)cc(C(=O)O[C@@H]2Cc3c(O)cc(O)cc3O[C@@H]2c2cc(O)c(O)c(O)c2)cc1O | 12.5 | 72 | 18.7
COc1c(O)cc(C(=O)O[C@H]2Cc3c(O)cc(O)cc3O[C@@H]2c2ccc(O)c(O)c2)cc1O | > 100 | > 100 | 22
COc1cc(C(=O)O[C@@H]2Cc3c(O)cc(O)cc3O[C@@H]2c2ccc(O)c(O)c2)cc(O)c1O | 15.6 | > 100 | 88

Other lines, results leading:

IC50 [1] [µM] | IC50 [2] [µM] | IC50 [3] [µM] | SMILES
3.7 | > 100 | 34 | COc1c(O)cc(C(=O)O[C@@H]2Cc3c(O)cc(O)cc3O[C@@H]2c2ccc(O)c(O)c2)cc1O
10.5 | 32 | 19 | COc1c(O)cc(C(=O)O[C@@H]2Cc3c(O)cc(O)cc3O[C@H]2c2cc(O)c(O)c(O)c2)cc1O
3.1 | 20 | 5.4 | COc1cc(C(=O)O[C@@H]2Cc3c(O)cc(O)cc3O[C@H]2c2cc(O)c(O)c(O)c2)cc(O)c1O
1.7 | 20 | 8.7 | COc1cc(C(=O)O[C@@H]2Cc3c(O)cc(O)cc3O[C@@H]2c2cc(O)c(O)c(O)c2)cc(O)c1O
